Source: PubChem BioAssay (NCI)
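Briefly, cells in 96-well plates were exposed to five compound concentrations for 48 h, and endpoints were estimated by linear interpolation. Abbreviation: GI50, concentration required for 50% inhibition of growth. The concentration for full growth arrest is given as TGI.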

Legend:
Assay in all cases: growth of human tumour cells (NCI), 48 h
[1] = system: NCI-H23 lung
[2] = system: ACHN renal
[3] = system: COLO 205 colon
[4] = system: OVCAR-5 ovarian
[5] = system: HCT-116 colon
[6] = system: SF-295 CNS
[7] = system: HOP-92 NSCLC
[8] = system: UACC-257 melanoma
[9] = system: SNB-75 CNS
[10] = system: SR leukemia

| SMILES | TGI [1] | TGI [2] | TGI [3] | TGI [4] | TGI [5] | TGI [6] | TGI [7] | TGI [8] | TGI [9] | TGI [10] | GI50 [1] | GI50 [2] | GI50 [3] | GI50 [4] | GI50 [5] | GI50 [7] | GI50 [8] | GI50 [6] | GI50 [9] | GI50 [10] |
| --- | --- | --- | --- | --- | --- | --- | --- | --- | --- | --- | --- | --- | --- | --- | --- | --- | --- | --- | --- | --- |
| CC(=O)OC1COC(n2c(=S)n(-c3ccc(C)cc3)c(=O)c3ccccc32)C(OC(C)=O)C1OC(C)=O (configuration not stated) | > 100 µM | > 100 µM | > 100 µM | > 100 µM | > 100 µM | > 100 µM | > 100 µM | > 100 µM | > 100 µM | – | – | – | – | – | – | – | – | – | – | – |
| Nc1ccc(C(=O)N/C(=C\c2ccc3c(c2)OCO3)c2nc3[nH]c(=S)[nH]c(=O)c3[nH]2)cc1 | > 100 µM | > 100 µM | > 100 µM | > 100 µM | – | > 100 µM | > 100 µM | – | – | > 100 µM | – | – | – | – | – | – | – | – | – | – |
| O=C1NC2(CCCCC2)C2CCCCC(O)C12 (configuration not stated) | > 100 µM | > 100 µM | > 100 µM | > 100 µM | > 100 µM | > 100 µM | – | > 100 µM | > 100 µM | > 100 µM | – | – | – | – | – | – | – | – | – | – |
| COc1ccc2c(c1)C1(C=N2)CCN(C(C)=O)CC1 | > 100 µM | > 100 µM | > 100 µM | > 100 µM | > 100 µM | > 100 µM | > 100 µM | > 100 µM | > 100 µM | – | – | – | – | – | – | – | – | – | – | – |
| CSCCCN(CCCSC)CCCSC | > 100 µM | – | > 100 µM | > 100 µM | > 100 µM | > 100 µM | – | > 100 µM | > 100 µM | 58.8 µM | – | – | – | – | – | – | – | – | – | – |
| CCOC(=O)c1ncn2c1[nH]c(=S)c1ccccc12 | > 100 µM | > 100 µM | > 100 µM | > 100 µM | > 100 µM | > 100 µM | > 100 µM | > 100 µM | > 100 µM | – | – | – | – | – | – | – | – | – | – | – |
| O=[S@@]1Nc2ccc(Br)cc2S1 | > 100 µM | > 100 µM | – | – | > 100 µM | > 100 µM | > 100 µM | > 100 µM | > 100 µM | > 100 µM | – | – | – | – | – | – | – | – | – | – |
| COc1ccc(-c2cc(=O)c3ccc(O)cc3o2)c(OC)c1OC | > 100 µM | > 100 µM | > 100 µM | – | > 100 µM | > 100 µM | > 100 µM | > 100 µM | 71.4 µM | – | – | – | – | – | – | – | – | – | – | – |
| CC1CN1P1(N2CC2C)=NP(N2CC2C)(N2CC2C)=NP(N2CC2C)(N2CC2C)=N1 (configuration not stated) | > 50 µM | > 50 µM | > 50 µM | – | > 50 µM | > 50 µM | > 50 µM | – | > 50 µM | > 50 µM | – | – | – | – | – | – | – | – | – | – |
| CCOC(=O)COc1cccc2c1C(=O)CCO2 | > 100 µM | > 100 µM | > 100 µM | > 100 µM | > 100 µM | > 100 µM | – | > 100 µM | – | – | – | – | – | – | – | – | – | – | – | – |
| Clc1cccc(Cc2cn3cc(-c4ccccc4)nc3s2)c1Cl | > 100 µM | > 100 µM | > 100 µM | > 100 µM | > 100 µM | – | 16.9 µM | > 100 µM | – | – | 60.7 µM | 30.2 µM | > 100 µM | > 100 µM | > 100 µM | 2.84 µM | 67.3 µM | – | – | – |
| CCNC1C2(CCCCC2)NC(=O)C12CCCCC2 (configuration not stated) | > 100 µM | > 100 µM | – | > 100 µM | > 100 µM | > 100 µM | – | > 100 µM | > 100 µM | – | – | – | – | – | – | – | – | – | – | – |
| CC(C)=CCCc1c(C)ccc2c1C(=O)C(=O)C(C(C)C)=C2 | 8.52 µM | 6.84 µM | > 22 µM | – | 6.55 µM | > 22 µM | 6.43 µM | – | > 22 µM | 14.9 µM | – | – | – | – | – | – | – | – | – | – |
| O=[N+]([O-])c1cnc(Sc2ccncn2)s1 | 26.4 µM | 3.24 µM | 3.35 µM | 28.3 µM | 3.33 µM | 41 µM | 4.4 µM | 7.5 µM | 18.8 µM | – | 8.99 µM | 1.81 µM | 1.75 µM | 14 µM | 1.84 µM | 1.99 µM | 2.94 µM | 18 µM | 3.84 µM | – |
| COc1cccc(NC(=O)CC(=O)n2nc(C)c(N=Nc3ccccc3)c2C)c1 | > 100 µM | > 100 µM | > 100 µM | – | > 100 µM | > 100 µM | > 100 µM | > 100 µM | > 100 µM | > 100 µM | – | – | – | – | – | – | – | – | – | – |
| COc1ccc(-n2/c(=N/C(=S)N(C)C)ss/c2=N\C(=S)N(C)C)cc1 | > 100 µM | > 100 µM | > 100 µM | > 100 µM | > 100 µM | > 100 µM | – | > 100 µM | 52.6 µM | > 100 µM | – | – | – | – | – | – | – | – | – | – |
| CC(=O)C(CN(C(C)C)C(C)C)C(c1ccccc1)c1c(O)c2ccccc2oc1=O (configuration not stated) | > 100 µM | > 100 µM | > 100 µM | > 100 µM | > 100 µM | > 100 µM | – | > 100 µM | > 100 µM | > 100 µM | – | – | – | – | – | – | – | – | – | – |
| CC1=C(C(=O)Nc2ccccc2C)C(c2ccco2)C(C(=O)Nc2ccccc2C)=C(C)N1C | > 100 µM | > 100 µM | – | > 100 µM | > 100 µM | > 100 µM | > 100 µM | > 100 µM | – | > 100 µM | – | – | – | – | – | – | – | – | – | – |
| CCCCCCCC(=O)SCC/C=C/[C@@H]1CC(=O)NCc2cccc(n2)C2=N[C@@](C)(CS2)C(=O)N[C@@H](C(C)C)C(=O)N1 | > 33.3 µM | > 33.3 µM | 1.62 µM | > 33.3 µM | 5.09 µM | 8.59 µM | 9.31 µM | – | > 33.3 µM | > 33.3 µM | 2.1 µM | 2.71 µM | 0.468 µM | 0.771 µM | 0.166 µM | 0.481 µM | – | 0.804 µM | 0.223 µM | 0.498 µM |
| CCOC(=O)C1=C(C)CC2C(=O)OC(=O)C2C1(C)C (configuration not stated) | > 100 µM | > 100 µM | > 100 µM | > 100 µM | – | > 100 µM | > 100 µM | > 100 µM | – | > 100 µM | – | – | – | – | – | – | – | – | – | – |
| O[C@H]1[C@H]2c3cc4c(cc3CN3CCC(=C[C@@H]1O)[C@H]23)OCO4 | 13.7 µM | 7.07 µM | 2.79 µM | 22 µM | > 100 µM | > 68.8 µM | – | – | 24.9 µM | 4.24 µM | – | – | – | – | – | – | – | – | – | – |
| CC1(C)OC(=O)C(=Cc2ccc(O)cc2)C(=O)O1 | > 100 µM | > 100 µM | > 100 µM | > 100 µM | > 100 µM | > 100 µM | > 100 µM | > 100 µM | – | > 100 µM | – | – | – | – | – | – | – | – | – | – |
